According to the supplement of paper PMC4862054:

How the values were obtained:
Assay in all cases: normalised response (% of control), CellTox Green; higher = less cell death (100 = DMSO, 0 = benzethonium chloride kill control)
Conditions in all cases: incubation time: 72 h
HCC1937 = system: HCC1937
Method in brief: (§1)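 CellTox Green fluorescence (485/520 nm) and, after 10 min at room temperature, CellTiter-Glo luminescence were read from breast cancer cell lines incubated 72 h in 384-well plates. Cells were seeded as 20 µl suspension onto compound at 5 concentrations in 10-fold steps over a 10,000-fold range chosen per compound. Each plate was normalised to 0.1 % DMSO (100) and a positive kill control (0). Values are normalised signals, one per concentration.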

HCC1143 = system: HCC1143
Method in brief: as §1

Hs578T = system: Hs578T
Method in brief: as §1

CAL-85-1 = system: CAL-85-1
Method in brief: as §1

MCF-10A = system: MCF-10A
Method in brief: as §1

MFM-223 = system: MFM-223
Method in brief: as §1

CAL-51 = system: CAL-51
Method in brief: as §1

HDQ-P1 = system: HDQ-P1
Method in brief: as §1

## CO[C@@H]1[C@H](N(C)C(=O)c2ccccc2)C[C@H]2O[C@]1(C)n1c3ccccc3c3c4c(c5c6ccccc6n2c5c31)C(=O)NC4 [Midostaurin] (10000 nM)
HCC1937
  normalised response: 91.9%
HCC1143
  normalised response: 91.4%
Hs578T
  normalised response: 21.1%
CAL-85-1
  normalised response: 97.5%
MCF-10A
  normalised response: 93.3%
MFM-223
  normalised response: 93.1%
CAL-51
  normalised response: -24.3%
HDQ-P1
  normalised response: 55.3%

## CO[C@@]12[C@H](COC(N)=O)C3=C(C(=O)C(C)=C(N)C3=O)N1C[C@@H]1N[C@@H]12 [Mitomycin C] (1000 nM)
HCC1937
  normalised response: 111%
HCC1143
  normalised response: 104%
Hs578T
  normalised response: 90.8%
CAL-85-1
  normalised response: 97.6%
MCF-10A
  normalised response: 90.1%
MFM-223
  normalised response: 101%
CAL-51
  normalised response: 35.3%
HDQ-P1
  normalised response: 106%

## CCNC(=O)c1noc(-c2cc(C(C)C)c(O)cc2O)c1-c1ccc(CN2CCOCC2)cc1 [NVP-AUY922] (100 nM)
HCC1937
  normalised response: 125%
HCC1143
  normalised response: 87.9%
Hs578T
  normalised response: 102%
CAL-85-1
  normalised response: 63.1%
MCF-10A
  normalised response: 57.5%
MFM-223
  normalised response: 78.3%
CAL-51
  normalised response: 64.1%
HDQ-P1
  normalised response: 62.8%

## CCNC(=O)c1noc(-c2cc(C(C)C)c(O)cc2O)c1-c1ccc(CN2CCOCC2)cc1 [NVP-AUY922] (1000 nM)
HCC1937
  normalised response: 48.9%
HCC1143
  normalised response: 74.2%
Hs578T
  normalised response: -31.9%
CAL-85-1
  normalised response: 37.6%
MCF-10A
  normalised response: 39.3%
MFM-223
  normalised response: 98.3%
CAL-51
  normalised response: 48.1%
HDQ-P1
  normalised response: 68.8%

## CC1(C)CCC(c2ccc(Cl)cc2)=C(CN2CCN(c3ccc(C(=O)NS(=O)(=O)c4ccc(N[C@H](CCN5CCOCC5)CSc5ccccc5)c(S(=O)(=O)C(F)(F)F)c4)cc3)CC2)C1 [Navitoclax] (10000 nM)
HCC1937
  normalised response: 69.4%
HCC1143
  normalised response: 113%
Hs578T
  normalised response: 101%
CAL-85-1
  normalised response: 76.8%
MCF-10A
  normalised response: 60.6%
MFM-223
  normalised response: 66.2%
CAL-51
  normalised response: 31.9%
HDQ-P1
  normalised response: -0.28%

## Cc1cn(-c2cc(NC(=O)c3ccc(C)c(Nc4nccc(-c5cccnc5)n4)c3)cc(C(F)(F)F)c2)cn1 [Nilotinib] (1000 nM)
HCC1937
  normalised response: 131%
HCC1143
  normalised response: 91.8%
Hs578T
  normalised response: 104%
CAL-85-1
  normalised response: 101%
MCF-10A
  normalised response: 107%
MFM-223
  normalised response: 103%
CAL-51
  normalised response: 86.3%
HDQ-P1
  normalised response: 79.2%

## Cc1cn(-c2cc(NC(=O)c3ccc(C)c(Nc4nccc(-c5cccnc5)n4)c3)cc(C(F)(F)F)c2)cn1 [Nilotinib] (10000 nM)
HCC1937
  normalised response: 93.1%
HCC1143
  normalised response: 104%
Hs578T
  normalised response: 64.7%
CAL-85-1
  normalised response: 88.6%
MCF-10A
  normalised response: 98.3%
MFM-223
  normalised response: 104%
CAL-51
  normalised response: 92.6%
HDQ-P1
  normalised response: 108%

## O=C(CCCCCCC(=O)Nc1ccccc1)NO [Vorinostat] (10000 nM)
HCC1937
  normalised response: 84.3%
HCC1143
  normalised response: 42.1%
Hs578T
  normalised response: 60.6%
CAL-85-1
  normalised response: 51.7%
MCF-10A
  normalised response: 98.4%
MFM-223
  normalised response: 80.3%
CAL-51
  normalised response: -6.76%
HDQ-P1
  normalised response: 103%
